Our source for the Solid-liquid equilibrium temperature and excess molar enthalpy values is the NIST ThermoML archive (doi:10.1016/j.tca.2005.11.022).

The nature of series [1]: Solid-liquid equilibrium temperature. The settings on record: 101.3 kPa, Conductivity measurements.
The nature of series [2]: excess molar enthalpy (molar enthalpy of mixing); xn = mol fraction of the nth substance listed. The settings on record: 505 K, 101 kPa, Liquid, Calvet calorimetry.

Numbers after ± are expanded uncertainties.

For the compound `O=S(=O)([O-])O.[Na+]` [sulfuric acid, monosodium salt], the Solid-liquid equilibrium temperature in series [1] (Crystal) is 458 ± 1 K.

As to `O=S(=O)([O-])O.[K+]` [hydrogen potassium sulfate], in series [1] (Crystal 1), the Solid-liquid equilibrium temperature stood at 488 ± 1 K.

For the compound `O=S(=O)([O-])O.[Na+]` [sulfuric acid, monosodium salt] + O=S(=O)([O-])O.[K+], the excess molar enthalpy in series [2] (x2 = 0.1135) was -0.043 ± 0.0043 kcal/mol; in series [2] (x2 = 0.2137), -0.1 ± 0.01 kcal/mol; in series [2] (x2 = 0.4029), -0.126 ± 0.0127 kcal/mol; in series [2] (x2 = 0.4978), -0.145 ± 0.0146 kcal/mol; in series [2] (x2 = 0.5883), -0.143 ± 0.0143 kcal/mol; in series [2] (x2 = 0.7186) it was -0.123 ± 0.0124 kcal/mol. The excess molar enthalpy in series [2] (x2 = 0.8521) is -0.069 ± 0.00693 kcal/mol.
